Assay results published in paper PMC12598851, “Exploiting Avidity Effects for the Discovery of Low Affinity Protein-Binding Fragments” (Journal of Medicinal Chemistry, 2025).
“Also recorded” adds a separate entry of the source.

How the values were obtained:
Streptavidin (SA) = biological target: T1, Streptavidin (SA) (Streptomyces avidinii, UniProt P22629); experiment: SPR, soluble compound binding to immobilized streptavidin; conditions: soluble mini-PEG attached compound, immobilized SA; read-out: KD (SPR)
T1 construct: purchased
Procedure: The SPR binding affinity testing was conducted using the BIAcore 1K system (Cytiva) with BIAcore Insight Control Software. Streptavidin (50 μg/mL in 10 mM pH 5.0 NaOAc) was immobilized on a CM5 sensor chip (Cytiva) via amide coupling, using HBS-EP+ (10 mM HEPES, 150 mM NaCl, 3 mM EDTA, and 0.05% v/v Surfactant P20) as the immobilization buffer. Approximately 1000 RU of immobilization was achieved. Testing compounds were evaluated using the multiple-cycle kinetic/affinity method in PBS-P+ running buffer (20 mM phosphate buffer, 2.7 mM KCl, 137 mM NaCl, and 0.05% Surfactant P20), with a 200 s association time, 200 s dissociation time, and a flow rate of 45 μL/min. Binding affinities for the testing compounds were determined by fitting the sensor grams to both the 1:1 binding kinetics and steady-state affinity models provided in the BIAcore Insight Evaluation Software.

SA-647 = biological target: T2, SA-647 (Streptomyces avidinii, UniProt P22629); experiment: Pooled bead library screen against SA-647 by FACS with LC-MS hit identification; assay type: binding; conditions: about 50-plex pooled beads, SA-647 500 nM, IP+-modified derivatives
T2 construct: purchased ThermoFisher S3235
Source text: While the one compound per well screening format employed for the Figures and experiments works well, it will limit throughput for the analysis of much larger fragment libraries in the future. […] A photocleavable linker was placed between the fragment and the bead (Figure a). Beads displaying compounds 2, 3, and the oxazole analog of compound 2 were also constructed with the same architecture. Beads displaying all of these compounds were then mixed together in a single Mobicol tube (approximately 25,000 of each bead type).
The resin was incubated with SA-647 (500 nM, 300 μL) for 1 h at room temperature with gentle rotation.
Prior to releasing the compounds from the resin for analysis, we “clicked” a brominated imidazopyridinium unit (IP^+) to the alkyne unit in the linker of these beads via copper-catalyzed azide–alkyne cycloaddition (Figure a,c insert). This was done for three reasons. The first was to add a chromophore to molecules so that, after release from the beads, they could be detected sensitively using a UV detector on the LC trace. […]
After attachment of the IP^+ tag, the beads were washed with a 1:1 mixture of DMF and DCM and irradiated at 365 nm (4.5 × 10^3 μJ cm^–2) for 1 h in a 3:1 DCM/MeOH mixture to release the ligands from the beads. After evaporation of solvents, the eluate was redissolved in water and analyzed by LC-MS. […]

[1] = biological target: T3, biotin-binding surface of SA (Streptomyces avidinii, UniProt P22629); experiment: Competition assay with biotin on beads; conditions: SA-647 500 nM pretreated with biotin 10 μM, 30 min
T3 construct: purchased ThermoFisher S3235
Procedure: To determine if ligand 2 interacts with the biotin-binding surface of SA, we preincubated SA-647 with excess biotin and repeated the binding assay.
This assay was conducted following the exact same procedure described above using two samples: SA-647 (500 nM) alone, and SA-647 (500 nM) that had been pretreated with biotin (10 μM) for 30 min at room temperature. Each sample was added to separate wells of a microtiter plate.

[2] = system: monomeric streptavidin (mSA-647); experiment: Bead pull-down with monomeric streptavidin; assay type: binding; conditions: mSA-647 500 nM, 1 h, PBST, room temperature
Procedure: To investigate this, compound 2-displaying, compound 3-displaying, or blank (acetylated) beads were incubated with tetrameric SA-647 or iFluor647-conjugated monomeric streptavidin (mSA-647). Biotin-displaying beads (Figure S3) were also included in this experiment as a high-affinity comparator. […] No binding of either protein to compound 3-displaying beads was observed.
3 Stable binding of tetrameric SA to beads displaying compound 2 is highly dependent on avidity. […] Each compound was represented by 1 million 10 μm TentaGel beads, with 250,000 beads used per technical replicate. (b) Effect of ligand functionalization density on compound binding. Beads were functionalized with compound 2, compound 3, or biotin at varying surface densities (100% to 5%) and incubated with SA-647 (500 nM) for 1 h in PBST at room temperature as previously, before recording the fluorescence intensity.
General notes: • At each step, contents were mixed by pipetting up and down 3–5 times. • All steps following the addition of SA-647 were conducted in the dark. • SA-647 and mSA-647 were purchased from commercial sources; (SA-647: ThermoFisher cat#S3235, mSA-647: Millipore SAE178).

Question: CC(=O)N(Cc1cccnc1)Cc1nc(C(=O)N(C)CC(=O)NCCOCCOCC(=O)NCC(N)=O)cs1 [Compound 2] was tested. Which Kd (Streptavidin (SA)) did it give?
Answer: 706 µM

Question: What about the “recovery in sorted hit pool (LC-MS peak)” value (SA-647) of the same compound?
Answer: major peak

Question: What about the “retention of SA-647 preincubated with excess biotin” value [1] of the same compound?
Answer: ablated retention

Question: What about the “binding of mSA-647 to bead-displayed ligand” value [2] of the same compound?
Answer: did not retain detectable levels; also recorded: not observed
